Measurements from article PMC7972453, “The allosteric modulation of complement C5 by knob domain peptides” (eLife, 2021).
Bridges are numbered along the chain shown (N, C = ends). Where no end group is shown, it is not given here.

What was measured:
C5 activation by the CP = assay: Complement activation assays, classical pathway (overall); type: biochemical; conditions: C5a release, C5b neo-epitope formation and C9 deposition ELISAs; human serum
Protocol: (§1) For functional characterisation of the peptides, we performed complement assays for CP and AP activation in human serum, assessing C5b neo-epitope formation and C5a release (schematically presented in Figure 1A, B), in combination with orthogonal ELISAs, measuring C3b and C9 deposition.
(§2) For the C3 and C9 ELISAs, microtiter plates (MaxiSorp; Nunc) were incubated overnight at 4°C with 50 µL of a solution of in 75 mM sodium carbonate (pH 9.6) containing either 2.5 µg/mL aggregated human IgG (Sigma-Aldrich, Gillingham, UK) for CP or 20 µg/mL zymosan (Sigma-Aldrich, Gillingham, UK) for AP. As a negative control, wells were coated with 1% (w/v) bovine serum albumin (BSA)/PBS. […] Complement activation was assessed through detection of deposited complement activation factors using specific antibodies against C3b (rat anti-human C3d HM2198, Hycult, Uden, The Netherlands) and C9 (goat anti-human C9, A226, Complement Technologies Tyler, TX) at a 1:1000 dilution. Bound primary antibodies were detected with […]-conjugated goat anti-rat (ab97057, Abcam, Cambridge, UK) or rabbit anti-goat (P0449, Agilent Dako, Santa Clara, CA) secondary antibodies at a 1:1000 dilution. Bound HRP-conjugated antibodies were detected using TMB One solution (Eco-TEK – manufactured by Bio-TEK, Winooski, VT) with absorbance measured at 450 nm. […]

[1] = system: sheep erythrocytes (classical pathway haemolysis); assay: Inhibition of classical pathway haemolysis; type: cell-based, sheep erythrocytes; normal human serum; conditions: 1% serum
Protocol: GVB^++ or Mg EGTA buffers, which had been supplemented with 2.5% glucose (w/v), were used for the CP and AP assays, respectively. For the AP, 150 µL of rabbit erythrocytes (TCS Biosciences, Botolph Claydon, UK) were washed twice, by addition of 1 mL of buffer and centrifugation at 800 ×g for 1 min, and finally resuspended in 500 µL of buffer. For the CP, 150 µL sheep erythrocytes (TCS Biosciences, Botolph Claydon, UK) were washed twice with 1 mL of buffer and sensitised with a 1/1000 dilution of rabbit anti-sheep red blood cell stroma antibody (S1389, Sigma Aldrich, Gillingham, UK). After a 30°C/30 min incubation, with shaking, the cells were rewashed and resuspended with 500 µL of buffer. Serial dilutions of peptide were prepared in the respective buffers and normal human serum was added at 1% for the CP and 4.5% for the AP (corresponding to CH50 of the serum). Also, 90 µL of peptide–serum mixtures were plated into a V-bottom 96-well microtiter plate (Corning) and 10 µL of erythrocytes were added. Plates were incubated for 30 min at 37°C, with shaking. Finally, 50 µL of buffer was added, the plates centrifuged at 800 ×g, and 80 µL of supernatant was transferred to an ELISA plate (Nunc) and absorbance measured at 405 nm.
Table 1.7. Inhibition of classical pathway haemolysis.

C5 activation by the AP = assay: Complement activation assays, alternative pathway (overall); type: biochemical; conditions: C5a release, C5b neo-epitope formation and C9 deposition ELISAs; human serum
Protocol: as §1, §2

## SVCPDGFDWGYGCAAGSSRFCTRHDWCCYDERADSHTYGFCTGNRVENLYFQ (disulfide 3-28, 13-21, 27-41) [K8]
C5 activation by the CP
  inhibition of C5 activation, CP assays (in words): partially inhibiting both the AP and CP
[1]; CP haemolysis, n=3, ND* = Not detected
  Average Emax: 95.6%
[1]; sheep erythrocytes
  inhibition of CP haemolysis (in words): efficacious in the CP assay
C5 activation by the AP
  inhibition of C5 activation, AP assays (in words): partially inhibiting both the AP and CP
